Tested on: CD1d-mediated activation of NKT cells
Assay: CD1d-mediated activation of a panel of NKT cell hybridomas by pretreated LCD1dwt cells, IL-2 ELISA
Format: cell-based, mouse
Conditions: LCD1dwt cells treated 4 h; DN32.D3, N37-1A12, N38-3C3
Procedure: FIG. 2. […] LCD1dwt cells were treated with 1 ml media containing 5% FBS, FBS, human AB serum or serum from the indicated patients for 3-4 h, washed extensively and then co-cultured with N37-1A12 and N38-3C3 NKT cell hybridomas. IL-2 was measured by standard cytokine ELISA, and data is shown as percent control, normalized to cells treated with culture media as 100% or the maximum level of stimulation.
FIG. 4. Treatment with ovarian cancer associated ascites has no effect on HLA-A2 mediated antigen presentation. […] IFN-γ released was measured by ELISA. […] NKT cell recognition of CD1d was assessed by measuring IL-2 production in the supernatants by ELISA.
FIG. 5. […] NKT cell recognition of CD1d1 was assessed by measuring IL-2 production in the supernatants by ELISA. […]
FIG. 6. […] IL-2 was measured, as an indication of NKT cell activation, by standard cytokine ELISA. […] NKT cell recognition of CD was assessed by measuring IL-2 production in the supernatants by ELISA. […]
FIG. 7. […] (A) IL-2 was measured, or GM-CSF (B) as an indication of NKT cell activation, by standard cytokine ELISA. […] The extracted lipids were analyzed by thin-layer chromatography (TLC) (HPTLC Silica Gel 60; Merck, Darmstadt, Germany) with chloroform-methanol-0.25% aqueous KCl (60:35:8) as running solvent. Gangliosides were detected with a resorcinol—HCl Cu2+ reagent. […]

Substance: GT1b
- CD1d-mediated activation of NKT cells, increasing doses of ganglioside: did not inhibit

From US20110256147A1, “DIAGNOSTIC AND TREATMENT METHODS FOR CANCER BASED ON IMMUNE INHIBITORS” (THE JOHNS HOPKINS UNIVERSITY, priority 2008, published 2011)
